Experimental data published in paper PMC8707700, “Ru(III) Complexes with Lonidamine-Modified Ligands” (International Journal of Molecular Sciences, 2021).
Values joined by “and” are separate entries in the source; they are usually repeats but may differ in a detail not shown here. Equal entries are not always repeated.

Assays:
HCT116 cells = assay: Annexin V/7-AAD flow cytometry (Muse Annexin V & Dead Cell Kit); format: cell-based; conditions: HCT116, 24 h; for Annexin V-positive cells: 2xIC50 (50 µM of 16, 20 µM of 20); for early apoptosis (Annexin V/7-AAD) / late apoptosis (Annexin V/7-AAD) / live cells (Annexin V/7-AAD) / necrosis (Annexin V/7-AAD): 2xIC50, one representative experiment
Protocol: Mechanisms of cell death, that is, Annexin V/7-AAD reactivity and caspase 3/7 activation, were determined for 16 and 20 in HCT116 cells using the Muse® Annexin V & Dead Cell Kit (Luminex corp., Austin, TX, USA) and flow cytometry. Cells were incubated with 16, 20, or cisplatin (reference drug) for 24 h at concentrations corresponding to 2xIC50 values (obtained in MTT assays; Table 4). The percentages of Annexin V-positive cells in response to 16 and 20 were higher than cisplatin (Figure 8). Complex 20 with the C12 linker induced Annexin V positivity slightly more efficiently than 16 with the C3 linker (27.4 ± 2.1% vs. 19.7 ± 0.6%).
The antiproliferative activity was studied by MTT assays as published previously. For flow cytometry studies, cells were plated into 6-well plates (Eppendorf, Germany; 4 × 10^5 cells in 2 mL of DMEM) and incubated for 24 h. Solutions of complexes in DMSO were prepared immediately prior to the day of the experiments. Cells were treated with either 20 µM of cisplatin, 50 µM of 16, or 20 µM of 20. Concentrations corresponded to two-fold IC50 values based on MTT assays. Cells were incubated for 24 h, pooled, washed with cold PBS, and resuspended in DMEM. Aliquots of cells were processed as recommended in the Muse Annexin V&Dead Cell Kit or Muse Caspase-3/7 Kit (Luminex). Measurements were carried out on a Muse Cell Analyser, Luminex corp., TX, USA.

[1] = Stability of Ru(III) complexes in phosphate buffer by UV-vis spectrophotometry; format: physicochemical; conditions: 20 mM phosphate buffer pH 7.4, 100 mM NaCl, 37 °C
Protocol: The stability of Ru(III) complexes (15–20) was investigated in a solution resembling physiological conditions (20 mM of phosphate buffer, pH 7.4, and 100 mM of NaCl at 37 °C) by UV-vis spectrophotometry (Table 1). The half-transformation time t1/2 was calculated based on changes in the electronic absorption spectrum (Figure S1) and defined as the value of t at the Alin/2 point. ΔA(t) was plotted against λmax; the initial section was approximated as a linear function.
The stability of Ru(III) complexes was studied by electron absorption spectroscopy in 20 mM of phosphate buffer, pH 7.4, and 100 mM of NaCl. The working solution (2 mL, 200 μM complex) was prepared by diluting 10 μL of the original 40 mM solution in DMSO and 1.99 mL of phosphate buffer. UV-vis spectra were recorded every 60 s in the range of 280–600 nm at 37 °C. The half-transformation time was t1/2. For λmax, ΔA(t) was plotted, where ΔA = A0–Ai, an initial section, was approximated as a linear function. At ΔAline./2 point calculated as t = t1/2.

[2] = test system: MCF-7 breast carcinoma cells; assay: Cellular ruthenium accumulation by atomic absorption spectrometry; format: cell-based; conditions: MCF-7, 20 μM
Protocol: The cellular accumulation of ruthenium complexes was studied by atomic absorption spectrometry. The MCF-7 breast carcinoma cells were incubated with 16 and 20 for 1–24 h in DMEM with or without fetal bovine serum to reduce the binding of complexes with proteins. The accumulation was dependent on the linker’s length. […] The ruthenium complex entered the cells relatively fast; by 4 h, no notable further increase of the Ru content was observed (Figure 6). […] The negative effect of serum on the cellular Ru accumulation has been reported for other ruthenium species; however, significant effects were detectable only after longer exposure (24 h).
The intracellular accumulation of metal-containing compounds was determined as described. […]
For metal and protein quantification, pellets were resuspended in 250 µL of deionised water and lysed for 30 min with sonication. The protein content in lysates was determined by the Bradford method. […] Drying steps were adjusted, the atomisation temperature was set to 2400 °C, and the reading time was increased to 7 s. Ruthenium was quantified at 349.8945 nm. The mean integrated absorbance of triple injections was used throughout the measurements. Results (average of the two experiments) were expressed as nmol metal/mg protein.

Balb/c mice = assay: In vivo acute toxicity; conditions: for Drug-induced lethality, died/survived (n = 6): 21 days
Protocol: Finally, we tested the acute toxicity of complex 16 in Balb/c mice after a single bolus i.p. injection of the compound dissolved in saline. […] Animals were monitored for 21 days after injection. […] Mice in these cohorts had normal hair cover; no changes of nutritional behaviour were registered over the entire period of observation. In contrast, doses >80 mg/kg were lethal for individual animals. […] Deaths were registered over the next 1–2 days (Table 5). In each group, the survived animals remained without visible changes for up to 21 days after the injection of 16.
The Balb/c female mice (8–10 weeks old, weight 20–22 g) were bred and hosted at the animal facility of the Blokhin Cancer Center. Mice were kept at 21 ± 1 °C, 50–60% humidity; food and water were added ad libitum. All manipulations were performed in accordance to the European Convention for the Protection of Vertebrate Animals used for Experimental and other Scientific Purposes (ETS 123). Compound 16 was injected i.p.; 70–110 mg/kg single bolus administration in 200 µL of saline. Each cohort contained six mice. Animals were monitored for 21 days after injection. General behavioural activity, nutritional habits, and the integrity of hair cover were the criteria of acute toxicity.

| Substance | Annexin V-positive cells (HCT116 cells) [%] | early apoptosis (Annexin V/7-AAD) (HCT116 cells) [%] | late apoptosis (Annexin V/7-AAD) (HCT116 cells) [%] | live cells (Annexin V/7-AAD) (HCT116 cells) [%] | necrosis (Annexin V/7-AAD) (HCT116 cells) [%] | t1/2 (half-transformation time) [1] | t1/2 (half-transformation time) ([1]; mean ± SD, three experiments) [s] | cellular Ru accumulation ([2]; 1–24 h) | signs of acute toxicity (Balb/c mice; 110 mg/kg i.p., initial 1–2 h after injection) | Drug-induced lethality, died/survived (n = 6) (Balb/c mice; single dose 70 mg/kg i.p., 70 mg/kg) | Drug-induced lethality, died/survived (n = 6) (Balb/c mice; single dose 80 mg/kg i.p., 80 mg/kg) | Drug-induced lethality, died/survived (n = 6) (Balb/c mice; single dose 90 mg/kg i.p.) | Drug-induced lethality, died/survived (n = 6) (Balb/c mice; single dose 100 mg/kg i.p.) | Drug-induced lethality, died/survived (n = 6) (Balb/c mice; single dose 110 mg/kg i.p.) | cellular Ru accumulation with serum in the culture medium ([2]; serum present) |
| --- | --- | --- | --- | --- | --- | --- | --- | --- | --- | --- | --- | --- | --- | --- | --- |
| Na[trans-Ru(DMSO)(C30H37Cl2N5O)Cl4] [Compound 20] | 27.4 ± 2.1 | 5 | 26 | 69 | 0 | ~ 35 min | 2150 ± 110 | accumulated more readily than 16 |  |  |  |  |  |  |  |
| Na[trans-Ru(DMSO)(C21H19Cl2N5O)Cl4] [Compound 16] | 19.7 ± 0.6 | 3 | 20 | 78 | 0 |  | 330 ± 20 |  | Tremor and dyspnoea | no deaths and 0/6 * | no deaths and 0/6 | 2/6 | 2/6 | 4/6 | only very low uptake |
